This passage reports normalised inhibition (eCFP-eYFP dual reporter) results from the OligoGym collection.

Oligonucleotides are given in HELM: sugar(base)linkage, 5' to 3'; d 2'-deoxyribose, r ribose, m 2'-O-methylribose, p phosphate. ss, as = sense and antisense strand
Note: test concentration or dose not given here.

The first data set concerns the target TMEM63B. Put plainly: reporter assay of Huesken 2005. To be noted: siRNA. A general note: In a reporter assay the amount or activity of a reporter protein is the signal.
Take “RNA1{r(A)p.r(G)p.r(A)p.r(G)p.r(G)p.r(C)p.r(G)p.r(C)p.r(A)p.r(A)p.r(C)p.r(G)p.r(U)p.r(G)p.r(A)p.r(A)p.r(G)p.r(C)p.r(G)p.d(T)p.d(T)}|RNA2{r(C)p.r(G)p.r(C)p.r(U)p.r(U)p.r(C)p.r(A)p.r(C)p.r(G)p.r(U)p.r(U)p.r(G)p.r(C)p.r(G)p.r(C)p.r(C)p.r(U)p.r(C)p.r(U)p.d(C)p.d(G)}$$$RNA1{StrandType:ss}|RNA2{StrandType:as}$”: the normalised inhibition (eCFP-eYFP dual reporter) was determined as 35.7%. “RNA1{r(C)p.r(A)p.r(C)p.r(C)p.r(C)p.r(A)p.r(G)p.r(U)p.r(U)p.r(C)p.r(U)p.r(U)p.r(C)p.r(C)p.r(C)p.r(C)p.r(A)p.r(C)p.r(C)p.d(T)p.d(T)}|RNA2{r(G)p.r(G)p.r(U)p.r(G)p.r(G)p.r(G)p.r(G)p.r(A)p.r(A)p.r(G)p.r(A)p.r(A)p.r(C)p.r(U)p.r(G)p.r(G)p.r(G)p.r(U)p.r(G)p.d(A)p.d(T)}$$$RNA1{StrandType:ss}|RNA2{StrandType:as}$” yielded a normalised inhibition (eCFP-eYFP dual reporter) of 56.1%. In turn, “RNA1{r(C)p.r(C)p.r(C)p.r(G)p.r(U)p.r(G)p.r(U)p.r(U)p.r(A)p.r(C)p.r(A)p.r(A)p.r(C)p.r(G)p.r(U)p.r(G)p.r(G)p.r(C)p.r(U)p.d(T)p.d(T)}|RNA2{r(A)p.r(G)p.r(C)p.r(C)p.r(A)p.r(C)p.r(G)p.r(U)p.r(U)p.r(G)p.r(U)p.r(A)p.r(A)p.r(C)p.r(A)p.r(C)p.r(G)p.r(G)p.r(G)p.d(C)p.d(G)}$$$RNA1{StrandType:ss}|RNA2{StrandType:as}$” had a normalised inhibition (eCFP-eYFP dual reporter) of 75.8%.

For the substance “RNA1{r(U)p.r(C)p.r(C)p.r(G)p.r(A)p.r(G)p.r(G)p.r(C)p.r(U)p.r(U)p.r(C)p.r(A)p.r(U)p.r(C)p.r(U)p.r(G)p.r(G)p.r(U)p.r(G)p.d(T)p.d(T)}|RNA2{r(C)p.r(A)p.r(C)p.r(C)p.r(A)p.r(G)p.r(A)p.r(U)p.r(G)p.r(A)p.r(A)p.r(G)p.r(C)p.r(C)p.r(U)p.r(C)p.r(G)p.r(G)p.r(A)p.d(T)p.d(G)}$$$RNA1{StrandType:ss}|RNA2{StrandType:as}$”, the normalised inhibition (eCFP-eYFP dual reporter) was 29.2%. Still for that read-out and setting: under “RNA1{r(U)p.r(U)p.r(U)p.r(A)p.r(U)p.r(C)p.r(G)p.r(G)p.r(C)p.r(A)p.r(A)p.r(C)p.r(G)p.r(C)p.r(C)p.r(A)p.r(U)p.r(G)p.r(G)p.d(T)p.d(T)}|RNA2{r(C)p.r(C)p.r(A)p.r(U)p.r(G)p.r(G)p.r(C)p.r(G)p.r(U)p.r(U)p.r(G)p.r(C)p.r(C)p.r(G)p.r(A)p.r(U)p.r(A)p.r(A)p.r(A)p.d(G)p.d(G)}$$$RNA1{StrandType:ss}|RNA2{StrandType:as}$” stands 36.7%. The substance “RNA1{r(U)p.r(A)p.r(C)p.r(C)p.r(U)p.r(C)p.r(A)p.r(G)p.r(U)p.r(G)p.r(C)p.r(C)p.r(C)p.r(A)p.r(C)p.r(A)p.r(A)p.r(C)p.r(U)p.d(T)p.d(T)}|RNA2{r(A)p.r(G)p.r(U)p.r(U)p.r(G)p.r(U)p.r(G)p.r(G)p.r(G)p.r(C)p.r(A)p.r(C)p.r(U)p.r(G)p.r(A)p.r(G)p.r(G)p.r(U)p.r(A)p.d(T)p.d(T)}$$$RNA1{StrandType:ss}|RNA2{StrandType:as}$” had a normalised inhibition (eCFP-eYFP dual reporter) of 51.3%. “RNA1{r(U)p.r(C)p.r(G)p.r(U)p.r(C)p.r(C)p.r(U)p.r(C)p.r(U)p.r(U)p.r(C)p.r(A)p.r(U)p.r(C)p.r(C)p.r(U)p.r(C)p.r(C)p.r(U)p.d(T)p.d(T)}|RNA2{r(A)p.r(G)p.r(G)p.r(A)p.r(G)p.r(G)p.r(A)p.r(U)p.r(G)p.r(A)p.r(A)p.r(G)p.r(A)p.r(G)p.r(G)p.r(A)p.r(C)p.r(G)p.r(A)p.d(C)p.d(A)}$$$RNA1{StrandType:ss}|RNA2{StrandType:as}$” displayed a normalised inhibition (eCFP-eYFP dual reporter) of 55.8%. Still for that read-out and setting: under “RNA1{r(A)p.r(G)p.r(C)p.r(U)p.r(C)p.r(A)p.r(G)p.r(G)p.r(G)p.r(G)p.r(A)p.r(U)p.r(G)p.r(A)p.r(G)p.r(C)p.r(C)p.r(C)p.r(C)p.d(T)p.d(T)}|RNA2{r(G)p.r(G)p.r(G)p.r(G)p.r(C)p.r(U)p.r(C)p.r(A)p.r(U)p.r(C)p.r(C)p.r(C)p.r(C)p.r(U)p.r(G)p.r(A)p.r(G)p.r(C)p.r(U)p.d(C)p.d(C)}$$$RNA1{StrandType:ss}|RNA2{StrandType:as}$” stands 43%; under “RNA1{r(G)p.r(U)p.r(G)p.r(G)p.r(U)p.r(U)p.r(G)p.r(U)p.r(G)p.r(G)p.r(G)p.r(C)p.r(G)p.r(U)p.r(C)p.r(C)p.r(U)p.r(C)p.r(U)p.d(T)p.d(T)}|RNA2{r(A)p.r(G)p.r(A)p.r(G)p.r(G)p.r(A)p.r(C)p.r(G)p.r(C)p.r(C)p.r(C)p.r(A)p.r(C)p.r(A)p.r(A)p.r(C)p.r(C)p.r(A)p.r(C)p.d(C)p.d(A)}$$$RNA1{StrandType:ss}|RNA2{StrandType:as}$”, 53.5%; under “RNA1{r(A)p.r(A)p.r(G)p.r(G)p.r(A)p.r(G)p.r(A)p.r(A)p.r(C)p.r(G)p.r(U)p.r(G)p.r(C)p.r(C)p.r(U)p.r(A)p.r(C)p.r(C)p.r(A)p.d(T)p.d(T)}|RNA2{r(U)p.r(G)p.r(G)p.r(U)p.r(A)p.r(G)p.r(G)p.r(C)p.r(A)p.r(C)p.r(G)p.r(U)p.r(U)p.r(C)p.r(U)p.r(C)p.r(C)p.r(U)p.r(U)p.d(G)p.d(C)}$$$RNA1{StrandType:ss}|RNA2{StrandType:as}$”, 70.2%. Substance “RNA1{r(C)p.r(C)p.r(U)p.r(U)p.r(U)p.r(G)p.r(U)p.r(C)p.r(A)p.r(C)p.r(C)p.r(U)p.r(U)p.r(C)p.r(C)p.r(A)p.r(C)p.r(A)p.r(A)p.d(T)p.d(T)}|RNA2{r(U)p.r(U)p.r(G)p.r(U)p.r(G)p.r(G)p.r(A)p.r(A)p.r(G)p.r(G)p.r(U)p.r(G)p.r(A)p.r(C)p.r(A)p.r(A)p.r(A)p.r(G)p.r(G)p.d(C)p.d(C)}$$$RNA1{StrandType:ss}|RNA2{StrandType:as}$” gave a normalised inhibition (eCFP-eYFP dual reporter) of 74.2%. As for “RNA1{r(G)p.r(U)p.r(A)p.r(C)p.r(A)p.r(U)p.r(G)p.r(A)p.r(U)p.r(C)p.r(C)p.r(G)p.r(G)p.r(C)p.r(U)p.r(C)p.r(U)p.r(G)p.r(C)p.d(T)p.d(T)}|RNA2{r(G)p.r(C)p.r(A)p.r(G)p.r(A)p.r(G)p.r(C)p.r(C)p.r(G)p.r(G)p.r(A)p.r(U)p.r(C)p.r(A)p.r(U)p.r(G)p.r(U)p.r(A)p.r(C)p.d(A)p.d(T)}$$$RNA1{StrandType:ss}|RNA2{StrandType:as}$”, the normalised inhibition (eCFP-eYFP dual reporter) turned out to be 46.8%.

Substance “RNA1{r(G)p.r(G)p.r(G)p.r(A)p.r(G)p.r(A)p.r(A)p.r(C)p.r(A)p.r(G)p.r(G)p.r(A)p.r(C)p.r(A)p.r(A)p.r(C)p.r(C)p.r(A)p.r(U)p.d(T)p.d(T)}|RNA2{r(A)p.r(U)p.r(G)p.r(G)p.r(U)p.r(U)p.r(G)p.r(U)p.r(C)p.r(C)p.r(U)p.r(G)p.r(U)p.r(U)p.r(C)p.r(U)p.r(C)p.r(C)p.r(C)p.d(C)p.d(A)}$$$RNA1{StrandType:ss}|RNA2{StrandType:as}$” came in with a normalised inhibition (eCFP-eYFP dual reporter) of 65.9%. The substance “RNA1{r(C)p.r(C)p.r(U)p.r(U)p.r(C)p.r(C)p.r(A)p.r(C)p.r(A)p.r(A)p.r(U)p.r(G)p.r(A)p.r(G)p.r(A)p.r(C)p.r(U)p.r(A)p.r(U)p.d(T)p.d(T)}|RNA2{r(A)p.r(U)p.r(A)p.r(G)p.r(U)p.r(C)p.r(U)p.r(C)p.r(A)p.r(U)p.r(U)p.r(G)p.r(U)p.r(G)p.r(G)p.r(A)p.r(A)p.r(G)p.r(G)p.d(T)p.d(G)}$$$RNA1{StrandType:ss}|RNA2{StrandType:as}$” yielded a normalised inhibition (eCFP-eYFP dual reporter) of 72.3%. Substance “RNA1{r(G)p.r(C)p.r(A)p.r(C)p.r(A)p.r(A)p.r(G)p.r(U)p.r(G)p.r(C)p.r(U)p.r(A)p.r(C)p.r(A)p.r(C)p.r(U)p.r(U)p.r(U)p.r(C)p.d(T)p.d(T)}|RNA2{r(G)p.r(A)p.r(A)p.r(A)p.r(G)p.r(U)p.r(G)p.r(U)p.r(A)p.r(G)p.r(C)p.r(A)p.r(C)p.r(U)p.r(U)p.r(G)p.r(U)p.r(G)p.r(C)p.d(A)p.d(T)}$$$RNA1{StrandType:ss}|RNA2{StrandType:as}$” came in with a normalised inhibition (eCFP-eYFP dual reporter) of 83.6%. Same read-out and setting: under “RNA1{r(U)p.r(G)p.r(G)p.r(G)p.r(A)p.r(G)p.r(A)p.r(A)p.r(C)p.r(C)p.r(A)p.r(C)p.r(C)p.r(A)p.r(U)p.r(U)p.r(G)p.r(C)p.r(C)p.d(T)p.d(T)}|RNA2{r(G)p.r(G)p.r(C)p.r(A)p.r(A)p.r(U)p.r(G)p.r(G)p.r(U)p.r(G)p.r(G)p.r(U)p.r(U)p.r(C)p.r(U)p.r(C)p.r(C)p.r(C)p.r(A)p.d(A)p.d(A)}$$$RNA1{StrandType:ss}|RNA2{StrandType:as}$” stands 43.8%; under “RNA1{r(C)p.r(A)p.r(G)p.r(G)p.r(C)p.r(C)p.r(U)p.r(G)p.r(C)p.r(U)p.r(C)p.r(A)p.r(U)p.r(G)p.r(U)p.r(A)p.r(C)p.r(A)p.r(U)p.d(T)p.d(T)}|RNA2{r(A)p.r(U)p.r(G)p.r(U)p.r(A)p.r(C)p.r(A)p.r(U)p.r(G)p.r(A)p.r(G)p.r(C)p.r(A)p.r(G)p.r(G)p.r(C)p.r(C)p.r(U)p.r(G)p.d(G)p.d(G)}$$$RNA1{StrandType:ss}|RNA2{StrandType:as}$”, 72.1%; under “RNA1{r(C)p.r(U)p.r(C)p.r(U)p.r(A)p.r(C)p.r(U)p.r(A)p.r(C)p.r(G)p.r(C)p.r(C)p.r(U)p.r(A)p.r(C)p.r(C)p.r(U)p.r(G)p.r(C)p.d(T)p.d(T)}|RNA2{r(G)p.r(C)p.r(A)p.r(G)p.r(G)p.r(U)p.r(A)p.r(G)p.r(G)p.r(C)p.r(G)p.r(U)p.r(A)p.r(G)p.r(U)p.r(A)p.r(G)p.r(A)p.r(G)p.d(A)p.d(T)}$$$RNA1{StrandType:ss}|RNA2{StrandType:as}$”, 56.4%.

In the next data set the target is Mmp7 (rat). Put plainly: reporter assay of Huesken 2005. To be noted: siRNA.
“RNA1{r(A)p.r(U)p.r(G)p.r(U)p.r(U)p.r(G)p.r(C)p.r(A)p.r(G)p.r(A)p.r(A)p.r(U)p.r(U)p.r(C)p.r(U)p.r(C)p.r(A)p.r(C)p.r(U)p.d(T)p.d(T)}|RNA2{r(A)p.r(G)p.r(U)p.r(G)p.r(A)p.r(G)p.r(A)p.r(A)p.r(U)p.r(U)p.r(C)p.r(U)p.r(G)p.r(C)p.r(A)p.r(A)p.r(C)p.r(A)p.r(U)p.d(C)p.d(T)}$$$RNA1{StrandType:ss}|RNA2{StrandType:as}$” came in with a normalised inhibition (eCFP-eYFP dual reporter) of 80.2%. On the same count and under the same terms, under “RNA1{r(U)p.r(G)p.r(C)p.r(A)p.r(G)p.r(A)p.r(A)p.r(G)p.r(C)p.r(C)p.r(C)p.r(A)p.r(G)p.r(G)p.r(U)p.r(G)p.r(U)p.r(G)p.r(G)p.d(T)p.d(T)}|RNA2{r(C)p.r(C)p.r(A)p.r(C)p.r(A)p.r(C)p.r(C)p.r(U)p.r(G)p.r(G)p.r(G)p.r(C)p.r(U)p.r(U)p.r(C)p.r(U)p.r(G)p.r(C)p.r(A)p.d(T)p.d(T)}$$$RNA1{StrandType:ss}|RNA2{StrandType:as}$” stands 61.3%.
